Reference: patent US12252524B2, “GIP/GLP1 co-agonist compounds” (Eli Lilly and Company, priority 2018, dated 2025)
Numbered stars: 1 amine (or outer) side, 2 acyl side, 3 side chain; on linkers, the order of the positions; unused ones are H or OH. Square brackets hold non-standard residues; d marks the D form. Side chains are listed from the residue outwards. Peptide text beside a SMILES is read from it. * marks the point of attachment. C20 diacid = O=C(O)CCCCCCCCCCCCCCCCCCC(=O)*; γGlu = O=C(O)[C@H](CCC(=O)[*:2])N[*:1]; αMeL = CC(C)C[C@](C)(N)C(=O)O; AEEA = NCCOCCOCC(=O)O; Aib = CC(C)(N)C(=O)O

Assays:
human GLP-1R [1] = biological target: T1, human GLP-1R (Homo sapiens, UniProt P43220); test: GLP-1R CHO cell β-arrestin recruitment assay; format: cell-based; design: host or cells: CHO-K1 PathHunter cells, assay-ready frozen; conditions: for EC50: CHO-K1 cells, PathHunter β-arrestin-2 recruitment, 0.1% casein, read-out: hGLP1R B-Arrestin2 Rel EC50 uM (SEM, n); for hGLP1R B-Arrestin2 % Top: normalized to GLP-1 maximum control
Outline: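 Peptide-induced β-arrestin-2 recruitment measured by enzyme-fragment complementation luminescence after 90 min at 37 °C plus 60 min detection at RT.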

human GLP-1R [2] = biological target: T1, human GLP-1R; test: [125I]-GLP-1 binding (SPA), human GLP-1 receptor; design: expressed in transfected cells; crude membranes; conditions: read-out: hGLP1R Ki, (nM) (SEM, n)
Outline: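 Ki values are geometric means with SEM over independent replicates on different days, derived from IC50s fitted by four-parameter nonlinear regression. The assay used crude cell membranes in HEPES buffer, pH 7.4, containing CaCl2, MgCl2, bacitracin and TWEEN-20.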

human GIP receptor = biological target: T2, human GIP receptor (Homo sapiens, UniProt P48546); test: [125I]-GIP binding (SPA), human GIP receptor; conditions: read-out: hGIPR Ki, nM (SEM, n)
T2 construct: expressed in transfected cells; crude membranes
T2 sequence (P48546 22-466): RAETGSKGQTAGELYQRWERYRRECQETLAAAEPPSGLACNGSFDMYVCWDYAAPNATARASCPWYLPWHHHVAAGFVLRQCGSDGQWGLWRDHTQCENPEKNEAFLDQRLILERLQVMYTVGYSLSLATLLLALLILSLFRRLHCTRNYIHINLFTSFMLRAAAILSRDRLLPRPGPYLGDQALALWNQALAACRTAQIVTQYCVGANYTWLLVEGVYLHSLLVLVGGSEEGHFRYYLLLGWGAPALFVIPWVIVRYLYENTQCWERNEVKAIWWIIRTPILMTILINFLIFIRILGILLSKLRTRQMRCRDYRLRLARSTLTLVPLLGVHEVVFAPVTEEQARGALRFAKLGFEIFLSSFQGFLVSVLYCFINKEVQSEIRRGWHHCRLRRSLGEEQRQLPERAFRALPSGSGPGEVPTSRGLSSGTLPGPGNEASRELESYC

[3] = biological target: T3, gastric inhibitory peptide receptor (GIPR) (Homo sapiens, UniProt P48546); test: cAMP pharmacological functional assay in presence of casein, hGIPR; format: cell-based; conditions: HEK293 cells expressing hGIPR, 0.1% Casein, geometric mean; read-out: hGIPR cAMP Rel EC50 nM (SEM, n)
T3 sequence (P48546 22-466): T2 sequence (P48546 22-466)

human GLP-1R [4] = biological target: T1, human GLP-1R; test: GLP-1R HEK293 cell membrane [35S]GTPγS binding assay; format: biochemical; design: expressed in transfected cells; host or cells: HEK293 cells expressing human GLP-1R; membranes; conditions: HEK293 cell membranes expressing human GLP-1R, [35S]GTPγS binding; read-out: hGLP1R GTPgS Rel EC50 nM (SEM, n)
Outline: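 Agonist-driven Gαs activation read as [35S]GTPγS ([…]) binding to receptor-expressing HEK293 membranes, 30 min at room temperature, pH 7.4. Detection by anti-Gαs immunocapture on scintillation beads; EC50 derived from four-parameter logistic concentration-response fit.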

human Gcg receptor = biological target: T4, human Gcg receptor (Homo sapiens, UniProt P47871); test: [125I]-Glucagon binding (SPA), human Gcg receptor; conditions: read-out: hGLcgR Ki, nM (SEM, n)
T4 construct: expressed in transfected cells; crude membranes
Outline: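 Scintillation counts are taken after membranes and WGA beads incubate and settle for 12 hours at room temperature. Buffer is 25 mM HEPES, pH 7.4, with CaCl2, MgCl2, bacitracin and Tween-20. Ki values, from four-parameter IC50 fits, are geometric means over independent days.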

[5] = biological target: human GLP-1 receptor (GLP-1R) (Homo sapiens, UniProt P43220); test: cAMP pharmacological functional assay in presence of casein, hGLP-1R; format: cell-based; conditions: HEK293 cells expressing hGLP-1R, 0.1% Casein, geometric mean; read-out: hGLP1R cAMP Rel EC50 nM (SEM, n)
human GLP-1 receptor (GLP-1R), sequence (P43220 24-463): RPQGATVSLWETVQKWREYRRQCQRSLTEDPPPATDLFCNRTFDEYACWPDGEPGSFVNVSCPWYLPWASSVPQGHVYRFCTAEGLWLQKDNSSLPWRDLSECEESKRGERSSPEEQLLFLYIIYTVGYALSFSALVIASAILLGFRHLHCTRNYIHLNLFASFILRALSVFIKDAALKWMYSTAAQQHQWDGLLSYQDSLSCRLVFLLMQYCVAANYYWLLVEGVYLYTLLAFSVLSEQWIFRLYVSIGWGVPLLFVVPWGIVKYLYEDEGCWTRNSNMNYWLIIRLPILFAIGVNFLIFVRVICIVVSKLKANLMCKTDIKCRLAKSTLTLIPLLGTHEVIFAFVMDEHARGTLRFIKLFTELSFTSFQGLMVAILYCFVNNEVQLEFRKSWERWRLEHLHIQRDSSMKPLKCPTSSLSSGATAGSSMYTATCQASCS

T1 sequence (P43220 24-463): as above
T4 sequence (P47871 26-477): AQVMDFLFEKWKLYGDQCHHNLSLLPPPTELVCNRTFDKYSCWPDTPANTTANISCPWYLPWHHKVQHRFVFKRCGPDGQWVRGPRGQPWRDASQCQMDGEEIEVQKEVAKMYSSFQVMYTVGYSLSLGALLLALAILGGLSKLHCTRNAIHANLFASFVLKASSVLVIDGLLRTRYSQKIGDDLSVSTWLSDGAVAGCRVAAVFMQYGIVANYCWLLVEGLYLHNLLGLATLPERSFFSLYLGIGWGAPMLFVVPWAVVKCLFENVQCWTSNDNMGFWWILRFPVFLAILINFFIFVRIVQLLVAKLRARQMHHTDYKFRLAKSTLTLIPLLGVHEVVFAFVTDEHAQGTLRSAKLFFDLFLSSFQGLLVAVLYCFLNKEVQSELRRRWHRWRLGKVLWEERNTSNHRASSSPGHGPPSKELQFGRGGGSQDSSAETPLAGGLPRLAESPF

| Structure (SMILES) | EC50 (human GLP-1R [1]) [µM] | hGLP1R B-Arrestin2 % Top (human GLP-1R [1]) [%] | Ki (human GLP-1R [2]) [nM] | Ki (human GIP receptor) [nM] | EC50 [3] [nM] | EC50 (human GLP-1R [4]) [nM] | Ki (human Gcg receptor) [nM] | EC50 [5] [nM] |
| --- | --- | --- | --- | --- | --- | --- | --- | --- |
| CC[C@H](C)[C@H](NC(=O)[C@H](CC(C)C)NC(=O)[C@H](Cc1ccc(O)cc1)NC(=O)[C@H](CCC(=O)O)NC(=O)[C@@H](NC(=O)[C@H](Cc1ccccc1)NC(=O)[C@H](C)NC(=O)C(C)(C)NC(=O)[C@H](CCC(N)=O)NC(=O)[C@H](C)NC(=O)[C@H](CCCCNC(=O)COCCOCCNC(=O)COCCOCCNC(=O)CC[C@H](NC(=O)CCCCCCCCCCCCCCCCCCC(=O)O)C(=O)O)NC(=O)[C@H](CCCCN)NC(=O)[C@H](CC(=O)O)NC(=O)[C@H](CC(C)C)NC(=O)[C@H](CC(C)C)NC(=O)[C@@H](NC(=O)[C@H](CO)NC(=O)[C@H](Cc1ccc(O)cc1)NC(=O)[C@H](CC(=O)O)NC(=O)[C@H](CO)NC(=O)[C@@H](NC(=O)[C@](C)(Cc1ccccc1)NC(=O)[C@@H](NC(=O)CNC(=O)[C@H](CCC(=O)O)NC(=O)C(C)(C)NC(=O)[C@H](N)Cc1ccc(O)cc1)[C@@H](C)O)[C@@H](C)O)[C@@H](C)CC)[C@@H](C)CC)C(=O)N[C@@H](CCC(=O)O)C(=O)NCC(=O)NCC(=O)N1CCC[C@H]1C(=O)N[C@@H](CO)C(=O)N[C@@H](CO)C(=O)NCC(=O)N[C@@H](C)C(=O)N1CCC[C@H]1C(=O)N1CCC[C@H]1C(=O)N1CCC[C@H]1C(=O)N[C@@H](CO)C(N)=O [Example 329] | 0.00473 | 63.4 | 3.28 | 0.0439 | 0.132 | 0.343 | 17 | 0.125 |
| CC[C@H](C)[C@H](NC(=O)[C@H](CC(C)C)NC(=O)[C@H](Cc1ccc(O)cc1)NC(=O)[C@H](CCC(=O)O)NC(=O)[C@@H](NC(=O)[C@H](Cc1ccccc1)NC(=O)[C@H](CCC(=O)O)NC(=O)C(C)(C)NC(=O)[C@H](CCC(N)=O)NC(=O)[C@H](C)NC(=O)[C@H](CCCCNC(=O)COCCOCCNC(=O)COCCOCCNC(=O)CC[C@H](NC(=O)CCCCCCCCCCCCCCCCCCC(=O)O)C(=O)O)NC(=O)[C@H](CCC(=O)O)NC(=O)[C@H](CC(=O)O)NC(=O)[C@H](CC(C)C)NC(=O)[C@](C)(CC(C)C)NC(=O)[C@@H](NC(=O)[C@H](CO)NC(=O)[C@H](Cc1ccc(O)cc1)NC(=O)[C@H](CC(=O)O)NC(=O)[C@H](CO)NC(=O)[C@@H](NC(=O)[C@H](Cc1ccccc1)NC(=O)[C@@H](NC(=O)CNC(=O)[C@H](CCC(=O)O)NC(=O)C(C)(C)NC(=O)[C@@H](N)Cc1ccc(O)cc1)[C@@H](C)O)[C@@H](C)O)[C@@H](C)CC)[C@@H](C)CC)C(=O)N[C@@H](C)C(=O)NCC(=O)NCC(=O)N1CCC[C@H]1C(=O)N[C@@H](CO)C(=O)N[C@@H](CO)C(=O)NCC(=O)N[C@@H](C)C(=O)N1CCC[C@H]1C(=O)N1CCC[C@H]1C(=O)N1CCC[C@H]1C(=O)N[C@@H](CO)C(N)=O [Example 331] (H-Y[Aib]EGTFTSDYSI[αMeL]LDEK([AEEA-AEEA-γGlu-C20 diacid])AQ[Aib]EFIEYLIAGGPSSGAPPPS-NH2) | 0.0128 | 44.3 | 11.4 | 0.0851 | 0.0547 | 0.375 | > 969 | 0.0929 |
